Data set [1] has as its system del(5q) MDS. As to conditions: cited from earlier work.
The subject of data set [2] is non-del (5q) MDS. Particulars: cited from earlier work.
Data set [3] has as its target protein phosphatase 2A (Homo sapiens, UniProt P67775). As to conditions: cited from earlier work.
The subject of data set [4] is Namalwa cells. The experiment in a line: MTT assay, proliferation of Namalwa cells. It is filed as cell-based. Particulars: 72 hours, versus control (FIGS. 7B and 7C). As for the experimental part:
(§1) FIG. 7A is a graph showing proliferation of HL60 cells 72 hours after treatment with 0.001 μM, 0.01 μM, 0.1 μM, 1.0 μM, 10 μM, or 100 μM LB-100 (grey) or 0.001 μM, 0.01 μM, 0.1 μM, 1.0 μM, 10 μM, or 100 μM lenalidomide (black), compared to control or vehicle. FIGS. 7B to 7C are graphs showing proliferation of Namalwa cells 72 hours after treatment with 0.001 μM, 0.01 μM, 0.1 μM, 1.0 μM, 10 μM, or 100 μM LB-100 (♦), 0.001 μM, 0.01 μM, 0.1 μM, 1.0 μM, 10 μM, or 100 μM lenalidomide (▪), or 0.001 μM, 0.01 μM, 0.1 μM, 1.0 μM, 10 μM, or 100 μM, cantharidin (▴), compared to control or vehicle.
(§2) HL60 cells and U937 cells were compared (FIGS. 8A and 8B).
Background: Tetrazolium dyes change colour on reduction, which living cells bring about.

Data set [5] concerns non-del(5q) MDS. The experiment in a line: Additional studies of LB-100 efficacy in non-del(5q) MDS. Format: in vivo. Here is the method:
(§3) Additional studies, similar to the aforementioned Phase I design, are conducted to evaluate the efficacy of LB-100, alone or in combination with lenalidomide, in patients with del(5q) MDS or non-del(5q) MDS.
An amount of LB-100 is administered to a subject afflicted with non-del(5q) MDS. […] An amount of LB-100 in combination with lenalidomide is administered to a subject afflicted with non-del(5q) MDS.

Data set [6] deals with HL60 cells. Nature of the data set: MTT assay, proliferation of HL60 cells. Format: cell-based. Particulars: 72 hours, versus lenalidomide, significant difference at 1 μM (FIG. 7A). As for the experimental part:
as §1, §2

Data set [7] deals with Namalwa cells. Nature of the data set: Apoptosis in cell lines (Namalwa), flow cytometry. Format: cell-based. Particulars: 10 μM, dissolved in MSG. Here is the method: FIG. 3 is a bar graph showing percentage of Namalwa cells undergoing apoptosis after treatment with 0.1 μM, 1.0 μM or 10 μM LB-100 dissolved in DMSO (grey) or MSG (black) compared to control and vehicle.
FIGS. 4A to 4D are a series of flow cytometry plots showing percentage of Namalwa cells undergoing apoptosis after treatment with control (FIG. 4A), 0.1 μM (FIG. 4B), 1.0 μM (FIG. 4C), or 10 μM (FIG. 4D) LB-100.
For orientation: In flow cytometry, cells or beads pass a laser one at a time.

Data set [8] relates to del(5q) MDS. Nature of the data set: Additional studies of LB-100 efficacy in del(5q) MDS. It is filed as in vivo. As for the experimental part: as §3
An amount of LB-100 is administered to a subject afflicted with del(5q) MDS. […] An amount of LB-100 in combination with lenalidomide is administered to a subject afflicted with del(5q) MDS.

Data set [9] has as its system Namalwa cells. The experiment in a line: Cell cycle analysis of Namalwa cells treated with LB-100. It is filed as cell-based. Here is the method: FIG. 1 is a bar graph showing percent of Namalwa cells in G1 arrest 24 hours after treatment with 0.1 μM, 1.0 μM or 10 μM LB-100 dissolved in DMSO (grey) or MSG (black) compared to control and vehicle.
FIG. 2 is a bar graph showing percent of Namalwa cells in G1 arrest 24 hours after treatment with 0.1 μM, 1.0 μM or 10 μM LB-100 compared to control.
Namalwa cells were treated with LB-100 dissolved in DMSO or MSG.

The subject of data set [10] is Non-del(5q) patient BM MNCs. Nature of the data set: Apoptosis in patient cells, non-del(5q). Format: cell-based. As to conditions: FIG. 5.
Data set [11] concerns MDS that is resistant to lenalidomide. Nature of the data set: Additional studies of LB-100 efficacy in lenalidomide-resistant MDS. Particulars: LB-100 or LB-100 in combination with lenalidomide. Format: in vivo. As for the experimental part:
as §3

Data set [12] has as its system del(5q) patient BM MNCs. The experiment in a line: Apoptosis in patient cells, del(5q). Format: cell-based. As for the experimental part: FIG. 6 is a bar graph showing percentage of primary BM MNCs from a Del(5q) patient undergoing apoptosis after treatment with 0.1 μM, 1.0 μM, or 10 μM lenalidomide (grey) or 0.1 μM, 1.0 μM, or 10 μM LB-100 (black), compared to a control.

The mark [13] stands for this setting: LB-100 in combination with lenalidomide.

Data on three compounds can be found in patent US10434100B2, “Protein phosphatase 2A inhibitors for treating myelodysplastic syndromes” (priority 2014, dated 2019).

The structures appear in SMILES notation.

Sequence of protein phosphatase 2A (P67775 whole entry): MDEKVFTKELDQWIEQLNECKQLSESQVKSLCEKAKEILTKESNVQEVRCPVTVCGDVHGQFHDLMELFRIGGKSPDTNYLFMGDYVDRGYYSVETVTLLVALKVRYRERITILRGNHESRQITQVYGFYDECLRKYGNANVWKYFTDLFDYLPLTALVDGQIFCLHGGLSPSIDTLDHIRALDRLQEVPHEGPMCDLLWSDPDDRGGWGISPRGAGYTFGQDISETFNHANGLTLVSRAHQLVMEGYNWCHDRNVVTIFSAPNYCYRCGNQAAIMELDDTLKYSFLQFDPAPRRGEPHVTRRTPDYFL

As to `Nc1cccc2c1CN(C1CCC(=O)NC1=O)C2=O` (stereo not drawn) [Lenalidomide, lenalidomide], the “transfusion independence (TI), share of patients” value in data set [1] (lower risk MDS patients with del(5q)) is on record as 67%; in data set [2] it was 26%. In addition, in data set [1] (patients with del5q MDS), the “median duration of response” value was 2.5 years.

On to `C=C1[C@@H](O)[C@@H]2O[C@]3(CC[C@H](/C=C/[C@@H](C)[C@@H]4CC(C)=C[C@@]5(O[C@H](C[C@@](C)(O)C(=O)O)CC[C@H]5O)O4)O3)CC[C@H]2O[C@@H]1[C@@H](O)C[C@H](C)[C@H]1O[C@@]2(CCCCO2)CC[C@H]1C` [Okadaic acid, 9,10-Deepithio-9,10-didehydroacanthifolicin], for which, in [3], the “Selectivity over PP2B, PP2C and other phosphatases (in words)” value was “highly selective over PP2B, PP2C and a range of other phosphatases”.

As to `CN1CCN(C(=O)C2C(C(=O)O)[C@H]3CC[C@@H]2O3)CC1` (stereo partly drawn) [LB100], the “Proliferation (in words)” value in [4] is reported as “significant decrease in proliferation in comparison to control”; in data set [6] it was “significant decreased proliferation in comparison to treatment with lenalidomide”. The “Efficacy (in words)” value is reported as “effective to treat the non-del(5q) MDS” in data set [5] (LB-100 alone); “effective to treat the non-del(5q) MDS” in data set [5] (setting [13]); “effective to treat the del(5q) MDS” in data set [8] (LB-100 alone); “effective to treat the del(5q) MDS” in data set [8] (setting [13]); “effective to treat the MDS” in data set [11]. In addition, the “Apoptosis (in words)” value is recorded as “led to apoptosis at 10 μM” in data set [7]; “did not lead to apoptosis” in [10]; “mild increase in apoptosis” in data set [12] (1 μM); “induced apoptosis in a dose dependent fashion” in data set [12] (0.1, 1.0, 10 μM (FIG. 6)). Also, the “G1 arrest, dose dependence (in words)” value in data set [9] (Table 2, FIG. 2) was “led to G1 arrest in a dose-dependent fashion”. In addition, the “G1 arrest (in words)” value in data set [9] (dissolved in DMSO or MSG (Table 1, FIG. 1)) is “led to G1 arrest at 1 and 10 μM in MSG and at 10 μM in DMSO”. For the same compound, the “Cytotoxicity compared with lenalidomide (in words)” value in data set [12] (10 μM) was “more cytotoxic than lenalidomide”.
